Experimental data taken from patent US12139503B2, “Borylated amino acid compositions for use in boron neutron capture therapy and methods thereof” (TAE Life Sciences, priority 2020, dated 2024).
Where two headings read alike, the source gives them in different places.

How the values were obtained:
[1] = target: T1, LAT-1 (Homo sapiens, UniProt Q01650); assay: LAT-1 mediated competition studies, boron uptake in FaDu cells; type: cell-based; settings: HBSS, 2 hours, 37° C.
T1 construct: host or cells: FaDu human nasopharyngeal carcinoma cells
Text: (§1) The FaDu cell line is a human nasopharyngeal carcinoma cell line. The cell line was obtained from the American Type Culture Collection (“ATCC”), located at 10801 University Boulevard Manassas, VA 20110-2209 USA in 2019. It has ATCC designation of HTB-43™ and lot number 70014320. FaDu cells are propagated in DMEM culture medium supplemented with 10% fetal bovine serum with routine passage by trypsinization and reseeding. The cell line is cryopreserved in liquid nitrogen.
(§2) Additionally, boron measurement was performed by ICP OES. on an Agilent 5110 ICP-OES. The data was analyzed using Agilent's ICP Expert Software, version 7.4.2.10790. Boron was measured axially at the 249.772 nm wavelength and the internal standard Beryllium was measured axially at the 313.042 nm wavelength. Beryllium internal standard was spiked into the solution at 1:5 the flowrate before introduction to the spray chamber via a T-connector. Finally, A standard curve using 1000, 100, 10, 1 and 0 ppb of boron was used to calculate the concentration of boron in each sample.
It has been shown that the system L transporter (LAT-1) mediates the transport of L-amino acids into cells and plays a major role in the uptake of BPA in BPA-based BNCT (WONGTHAI, et. al. Cancer Sci Vol. 106, pg. 279-286, 2015). To assess whether TLS00192 is transported via LAT-1 dependent mechanism we interrogated its ability to be outcompeted by the LAT1 substrate L-Phe FaDu cells were incubated in HBSS medium for two (2) hours at 37° C. with 0.5 mM of either TLS00192 or BPA-fructose in the absence (Subset A) or presence of increasing concentrations of competitor Phe (Subset B), L-system antagonist BCH (Subset C) or LAT-1 specific inhibitor JPH203 (Subset D). The cells were harvested, and the amount of each boronated cell associated compound was determined by ICP OES. The IC50s for the respective inhibitor on each compound is also indicated. BPA was used as a positive control for LAT-1-mediated uptake.

[2] = system: FaDu cells; assay: Cellular retention of TLS00192 and BPA-fructose in FaDu cells; type: cell-based, human; settings: sixteen (16) hours after initial 2 hour incubation
Text: as §1, §2
Subsequently, to determine whether the efflux mediated by either LAT1 or LAT2 or other transporters is equal for BPA-fructose relative to TLS00192 in cellular retention tests in FaDu cells. […] Data is expressed as % residual boron content of time zero amount.

[3] = system: FaDu cells; assay: Cellular retention of TLS00190, TLS00178 and BPA-Fructose in FaDu cells; type: cell-based, human
Experimental: Subsequently, to determine whether the efflux mediated by either LAT1 or LAT2 or other transporters is equal for BPA-fructose relative to TLS00192 in cellular retention tests in FaDu cells. The “time zero” sample was immediately harvested following an initial two (2) hour incubation with the compounds. Cells were then harvested at indicated times and subjected to lysis, boron measurement, and protein content. Data is expressed as % residual boron content of time zero amount. In addition, the retention of TLS00190 and TLS00178 following initial 2 hour uptake compared to BPA-Fructose was also studied in FaDu cells.

[4] = system: FaDu cells; assay: Boron uptake of TLS00190 and TLS00178 in FaDu cells; type: cell-based, human; settings: two (2) hour incubation
Text: as §1
as §2, with “Finally, A standard curve using 1000, 100, 10, 1 and 0 ppb of boron was used to calculate the concentration of boron in each sample.” left out
The efficiency of boron uptake of TLS00190 and TLS00178 was determined using FaDu cells. Following a two (2) hour incubation, cells were harvested and suspended in ice cold PBS and a portion was lysed in RIPA buffer and protein content determined by BCA assay. […] After two (2) hours of incubation the amount of the compounds taken up was determined based on the boron measurements.

[5] = system: FaDu nasopharnygeal squamous carcinoma cells; assay: Kinetic parameters of boron uptake in FaDu cells (ICP-OES); type: cell-based, human; settings: Michaelis-Menton non-linear regression
Text: To investigate the ability of TLS00192 to deliver boron to FaDu nasopharnygeal squamous carcinoma cells, we interrogated a range of concentrations bracketing what is hypothsized to be physiologically relevant amounts for boronophenylalanine (BPA), currently the most widely studied boron drug in BNCT clinical practice.
The FaDu cell line is a human nasopharyngeal carcinoma cell line. The cell line was obtained from the American Type Culture Collection (“ATCC”), located at 10801 University Boulevard Manassas, VA 20110-2209 USA in 2019. It has ATCC designation of HTB-43™ and lot number 70014320. […]
Additionally, boron measurement was performed by ICP OES. on an Agilent 5110 ICP-OES. The data was analyzed using Agilent's ICP Expert Software, version 7.4.2.10790. Boron was measured axially at the 249.772 nm wavelength and the internal standard Beryllium was measured axially at the 313.042 nm wavelength. […]
To determine the kinetic parameters of TLS00192, Boron compounds were added to FaDu cells at the final concentration of 2.5 mM in HBSS and the cells were incubated at 37° C., in a humidified 5% CO2 atmosphere for two (2) hrs with shaking. Following two (2) hour incubation, cells were harvested and suspended in ice cold PBS and lysed in RIPA buffer and protein content determined by BCA assay. […] Results were expressed as ng boron/per mg cell protein/per minute. […]

[6] = system: intracranial tumor; settings: BNCT with beam directed to surgically exposed intracranial tumor; cited from earlier work
[7] = 0.5 mM BPA-fructose as substrate, read-out: IC50 of competitor on boron uptake of BPA-Fructose
[8] = 0.5 mM TLS00192 as substrate, read-out: IC50 of competitor on boron uptake of TLS00192
[9] = twenty (20) hrs after initial 2 hour uptake

T1 sequence (Q01650 whole entry): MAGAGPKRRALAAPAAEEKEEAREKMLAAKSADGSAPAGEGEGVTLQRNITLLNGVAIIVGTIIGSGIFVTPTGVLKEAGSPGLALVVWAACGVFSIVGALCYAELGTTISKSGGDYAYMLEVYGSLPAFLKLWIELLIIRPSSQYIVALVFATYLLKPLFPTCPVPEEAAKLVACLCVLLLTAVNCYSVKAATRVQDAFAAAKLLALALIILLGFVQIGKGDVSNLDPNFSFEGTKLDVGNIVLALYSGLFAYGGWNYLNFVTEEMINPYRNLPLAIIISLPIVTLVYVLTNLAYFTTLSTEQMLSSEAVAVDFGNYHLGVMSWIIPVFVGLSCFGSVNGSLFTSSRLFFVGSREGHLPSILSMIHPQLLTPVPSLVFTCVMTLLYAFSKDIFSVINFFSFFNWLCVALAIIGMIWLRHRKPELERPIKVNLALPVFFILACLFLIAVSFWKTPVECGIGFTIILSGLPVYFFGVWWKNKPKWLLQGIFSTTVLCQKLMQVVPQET
T1 sequence (P08195 102-630 partner): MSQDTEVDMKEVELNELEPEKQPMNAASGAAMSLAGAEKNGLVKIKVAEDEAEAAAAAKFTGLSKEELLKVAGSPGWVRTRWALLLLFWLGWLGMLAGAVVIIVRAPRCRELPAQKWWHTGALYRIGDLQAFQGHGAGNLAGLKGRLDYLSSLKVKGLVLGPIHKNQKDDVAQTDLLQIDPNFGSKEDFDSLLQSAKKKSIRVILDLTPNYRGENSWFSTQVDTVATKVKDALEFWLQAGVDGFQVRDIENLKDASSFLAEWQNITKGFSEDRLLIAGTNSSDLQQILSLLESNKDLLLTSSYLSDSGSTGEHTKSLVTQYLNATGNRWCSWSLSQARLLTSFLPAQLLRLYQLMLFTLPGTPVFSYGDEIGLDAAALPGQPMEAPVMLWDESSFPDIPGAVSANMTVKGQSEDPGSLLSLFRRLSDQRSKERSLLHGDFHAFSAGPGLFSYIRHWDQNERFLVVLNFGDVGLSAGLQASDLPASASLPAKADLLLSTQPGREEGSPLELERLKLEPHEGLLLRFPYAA

## NC1(C(=O)O)CC2CCC1C2 (stereo not shown) [BCH, 2-aminobicyclo-(2,2,1)-heptane-2-carboxylic acid]
[1]; [7]
  IC50: 140 µM
[1]; [8]
  IC50: 800 µM

## N[C@@H](Cc1ccc(B(O)O)cc1)C(=O)O [BPA, 4-Borono-L-phenylalanine]
[2]
  % residual boron content of time zero amount: approximately 10%

## Nc1cc(COc2c(Cl)cc(C[C@H](N)C(=O)O)cc2Cl)c2oc(-c3ccccc3)nc2c1 [JPH203]
[1]; 0.5 mM BPA-fructose as substrate, read-out: IC50 of inhibitor on LAT1-mediated uptake of BPA
  IC50: 0.78 µM
[1]; 0.5 mM TLS00192 as substrate, read-out: IC50 of inhibitor on LAT1-mediated uptake of TLS00192
  IC50: 0.19 µM

## N[C@@H](Cc1ccccc1)C(=O)O [L-Phe, phenylalanine]
[1]; [7]
  IC50: 40 µM
[1]; [8]
  IC50: 430 µM

## CNC(=O)[C@@H](N)Cc1c[nH]cn1 [TLS00178]
[3]; [9]
  retention, cellular level remaining: 57%
[4]
  boron uptake (ng boron per mg protein), result in words: retain the ability to be transported into FaDu cancer cells

## COCCOCCOc1ccc(C[C@H](N)C(=O)O)cc1 [TLS00190]
[3]; [9]
  retention, cellular level remaining: 43%
[3]; two (2) hours after initial 2 hour uptake
  retention, cellular level remaining: 14%
[4]
  boron uptake (ng boron per mg protein), result in words: retain the ability to be transported into FaDu cancer cells

## N[C@@H](Cc1ccc(O)c(B(O)O)c1)C(=O)O [TLS00192]
[2]
  % residual boron content of time zero amount: greater than 40%
[5]; 2 hr incubation in HBSS at 37° C.
  Km: 1.97 mM
[5]; 2 hr incubation
  apparent Vmax: 15.87 ng boron mg^−1 min^−1

## undecahydrododecaborane thiol [BSH]
[6]
  5-year survival rate: 58%
